≈ marks a conversion by molar mass, not a printed value. Read-outs that look alike come from different tables or passages of the source. Numbered stars: 1 amine (or outer) side, 2 acyl side, 3 side chain; on linkers, the order of the positions; unused ones are H or OH. Bridge positions count the residues as written; N and C are the ends. Side chains are listed from the residue outwards. Peptide text beside a SMILES is read from it. * marks the point of attachment. C20 diacid = O=C(O)CCCCCCCCCCCCCCCCCCC(=O)*; γGlu = O=C(O)[C@H](CCC(=O)[*:2])N[*:1]; AEEA = NCCOCCOCC(=O)O
Experiments:
[1] = ASSAY (IV) determination of solubility; type: physicochemical
Procedure, shortened: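 Polypeptide in water at […] mixed 1:1 with 100 mM buffers of pH 3.0-8.0 (glycylglycine pH 3-5, bistrispropane pH 6-8). Held 18 h at room temperature, then centrifuged; concentration remaining in solution measured by UPLC.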

[2] = target: T1, human amylin receptor (membranes from Amylin 3(a)/CRE-luc cells) (Homo sapiens, UniProt O60896+P30988); assay: ASSAY (V) binding to the human amylin receptor (SPA, 125I-rat amylin);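 also: competition binding of cell membranes (35 ng/µL) mixed with SPA beads in 384-well plates at 40 µL total volume, read by scintillation counting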
T1 construct: expressed in transfected cells
T1 sequence (P30988 25-474): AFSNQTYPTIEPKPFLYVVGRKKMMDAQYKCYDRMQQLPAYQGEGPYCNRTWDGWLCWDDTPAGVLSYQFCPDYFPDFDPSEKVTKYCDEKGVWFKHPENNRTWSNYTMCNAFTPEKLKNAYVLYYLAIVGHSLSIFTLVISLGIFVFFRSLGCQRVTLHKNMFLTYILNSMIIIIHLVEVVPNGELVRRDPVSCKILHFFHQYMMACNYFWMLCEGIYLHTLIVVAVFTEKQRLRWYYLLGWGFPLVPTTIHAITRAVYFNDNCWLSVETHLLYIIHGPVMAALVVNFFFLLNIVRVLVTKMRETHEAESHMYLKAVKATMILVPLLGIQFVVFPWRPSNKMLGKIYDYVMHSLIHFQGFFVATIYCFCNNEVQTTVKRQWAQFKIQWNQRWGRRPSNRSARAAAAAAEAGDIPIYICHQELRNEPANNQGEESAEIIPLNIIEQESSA
T1 sequence (O60896 24-148 partner): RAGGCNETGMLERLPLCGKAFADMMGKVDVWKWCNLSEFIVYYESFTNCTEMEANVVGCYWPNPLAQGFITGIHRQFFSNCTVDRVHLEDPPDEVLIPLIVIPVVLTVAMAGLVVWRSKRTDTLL

[3] = target: T2, rat amylin receptor (rat calcitonin receptor + rat RAMP 3) (Rattus norvegicus, UniProt P32214+Q9JJ73); assay: ASSAY (VI) binding to the rat amylin receptor; conditions: for IC50: binding to rat amylin receptor, read-out: rAmylin-R bind IC50
T2 construct: expressed in transfected cells; host or cells: BHK tk'ts 13 (transient, FuGENE 6), membranes
T2 sequence (P32214 25-479 isoform P32214-2 limits assumed): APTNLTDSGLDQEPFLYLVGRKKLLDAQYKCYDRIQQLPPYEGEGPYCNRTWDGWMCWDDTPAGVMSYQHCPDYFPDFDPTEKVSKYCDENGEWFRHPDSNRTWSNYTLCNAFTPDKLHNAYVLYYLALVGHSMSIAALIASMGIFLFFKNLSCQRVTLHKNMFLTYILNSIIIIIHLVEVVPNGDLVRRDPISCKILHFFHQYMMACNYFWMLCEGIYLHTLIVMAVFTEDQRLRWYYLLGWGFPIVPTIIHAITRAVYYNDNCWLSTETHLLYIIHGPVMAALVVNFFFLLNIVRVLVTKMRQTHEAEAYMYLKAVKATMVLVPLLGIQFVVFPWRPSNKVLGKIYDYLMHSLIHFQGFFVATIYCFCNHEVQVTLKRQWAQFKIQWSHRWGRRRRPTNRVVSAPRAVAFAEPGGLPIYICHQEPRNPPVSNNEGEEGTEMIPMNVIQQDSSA
T2 sequence (Q9JJ73 23-147 partner): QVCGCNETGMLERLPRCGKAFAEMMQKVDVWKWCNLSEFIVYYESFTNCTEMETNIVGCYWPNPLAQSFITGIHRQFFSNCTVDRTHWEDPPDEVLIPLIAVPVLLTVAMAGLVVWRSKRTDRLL
Procedure, shortened: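 This assay measured binding to the rat amylin receptor. BHK tk′ts 13 cells were transiently transfected with the rat calcitonin receptor using FuGENE® 6 (Roche), following the manufacturer's recommendations. About 48 hours after transfection, the cells were harvested and membranes were prepared from them for the binding determination.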

rat calcitonin receptor = target: T3, rat calcitonin receptor (Rattus norvegicus, UniProt P32214); assay: ASSAY (VIII) binding to the rat calcitonin receptor; conditions: Table 7, read-out: rCTR bind IC50
T3 construct: expressed in transfected cells; host or cells: BHK tk'ts 13 (transient, FuGENE 6), membranes
T3 sequence (P32214 25-479 isoform P32214-2 limits assumed): T2 sequence (P32214 25-479 isoform P32214-2 limits assumed)
Procedure, shortened: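 Membranes were prepared from BHK tk′ts 13 cells transiently transfected with rat calcitonin receptor. Cells were grown in DMEM with 10% FBS and harvested approximately 48 hours after transfection.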

[4] = bistrispropane buffer, pH 6.5, read-out: Solubility pH 6.5 Concentration
[5] = bistrispropane buffer, pH 7.5, read-out: Solubility pH 7.5 Concentration
[6] = bistrispropane buffer, pH 6.0, read-out: Solubility pH 6.0 Concentration
[7] = bistrispropane buffer, pH 8.0, read-out: Solubility pH 8.0 Concentration
[8] = glycylglycine buffer, pH 3.0, read-out: Solubility pH 3.0 Concentration
[9] = glycylglycine buffer, pH 4.0, read-out: Solubility pH 4.0 Concentration
[10] = glycylglycine buffer, pH 5.0, read-out: Solubility pH 5.0 Concentration
[11] = Table 5, selectivity, hCTR bind IC50 / hAmylin-R bind IC50
[12] = Table 5a, selectivity, hCTR bind IC50 / hAmylin-R bind IC50
[13] = Table 5b, selectivity, hCTR bind IC50 / hAmylin-R bind IC50
[14] = Table 5c, selectivity, hCTR bind IC50 / hAmylin-R bind IC50
[15] = Table 7, human binding selectivity, included for comparison
[16] = Table 7a (preferred compounds), human binding selectivity, included for comparison
[17] = ratio of human calcitonin receptor binding IC50 to human amylin receptor binding IC50
[18] = Table 7, rat binding selectivity, rCTR IC50 / rAmylin-R IC50
[19] = Table 7a (preferred compounds), rat binding selectivity, rCTR IC50 / rAmylin-R IC50
[20] = ratio of rCTR bind IC50 to rAmylin-R bind IC50
[21] = bistrispropane buffer, pH 7.0, read-out: Solubility pH 7.0 Concentration

solubility at 18 h [1, 4] [µM]	solubility at 18 h [1, 5] [µM]	solubility at 18 h [1, 6] [µM]	solubility at 18 h [1, 7] [µM]	solubility at 18 h [1, 8] [µM]	solubility at 18 h [1, 9] [µM]	solubility at 18 h [1, 10] [µM]	Ratio hCT/hAmylin binding [2, 11]	Ratio hCT/hAmylin binding [2, 12]	Ratio hCT/hAmylin binding [2, 13]	Ratio hCT/hAmylin binding [2, 14]	Ratio hCT/hAmylin binding [2, 15]	Ratio hCT/hAmylin binding [2, 16]	Ratio hCT/hAmylin binding [2, 17]	IC50 ([3]; Table 7) [nM]	Ratio rCT/rAmylin binding [3, 18]	Ratio rCT/rAmylin binding [3, 19]	Ratio rCT/rAmylin binding [3, 20]	IC50 (rat calcitonin receptor) [nM]	solubility at 18 h [1, 21] [µM]	SMILES
≥ 200	154 (≈ 678 µg/mL)	≥ 200	96 (≈ 423 µg/mL)	≥ 200	≥ 200	≥ 200	59.4	59.4	59.4	59.4	59.4	59.4	59.4	1.17	40.3	40.3	40.3	47	–	CC[C@H](C)[C@H](NC(=O)[C@H](C)NC(=O)CNC(=O)[C@H](Cc1ccccc1)NC(=O)[C@H](CC(N)=O)NC(=O)[C@@H]1CCCN1C(=O)[C@H](CO)NC(=O)[C@H](CO)NC(=O)[C@H](Cc1c[nH]cn1)NC(=O)[C@H](CCCNC(=N)N)NC(=O)[C@H](CC(C)C)NC(=O)[C@H](Cc1ccccc1)NC(=O)[C@H](CC(N)=O)NC(=O)[C@H](C)NC(=O)[C@H](CC(C)C)NC(=O)[C@H](CCCNC(=N)N)NC(=O)[C@H](CCC(N)=O)NC(=O)[C@@H](NC(=O)[C@H](C)NC(=O)[C@@H]1CSSC[C@H](NC(=O)[C@@H](N)CCCCNC(=O)CC[C@H](NC(=O)CCCCCCCCCCCCCCCCC(=O)O)C(=O)O)C(=O)N[C@@H](CC(N)=O)C(=O)N[C@@H]([C@@H](C)O)C(=O)N[C@@H](C)C(=O)N[C@@H]([C@@H](C)O)C(=O)N1)[C@@H](C)O)C(=O)N1CCC[C@H]1C(=O)N[C@@H](CO)C(=O)N[C@@H](CO)C(=O)N[C@H](C(=O)N[C@@H](CC(N)=O)C(=O)N[C@H](C(=O)NCC(=O)N[C@@H](Cc1c[nH]cn1)C(=O)N[C@@H](CC(N)=O)C(=O)N[C@H](C(=O)N[C@@H](Cc1ccc(O)cc1)C(N)=O)[C@@H](C)O)C(C)C)[C@@H](C)O [Example 113]
≥ 200	≥ 200	≥ 200	165 (≈ 752 µg/mL)	≥ 200	≥ 200	≥ 200	27.3	27.3	27.3	27.3	27.3	27.3	27.3	0.288	73.0	73.0	73.0	21	≥ 200	CC[C@H](C)[C@H](NC(=O)[C@H](C)NC(=O)CNC(=O)[C@H](Cc1ccccc1)NC(=O)[C@H](CC(N)=O)NC(=O)[C@@H]1CCCN1C(=O)[C@H](CO)NC(=O)[C@H](CO)NC(=O)[C@H](Cc1c[nH]cn1)NC(=O)[C@H](CCCNC(=N)N)NC(=O)[C@H](CC(C)C)NC(=O)[C@H](Cc1ccccc1)NC(=O)[C@H](CCC(=O)O)NC(=O)[C@H](C)NC(=O)[C@H](CC(C)C)NC(=O)[C@H](CCCNC(=N)N)NC(=O)[C@H](CCC(N)=O)NC(=O)[C@@H](NC(=O)[C@H](C)NC(=O)[C@@H]1CSSC[C@H](NC(=O)[C@@H](N)CCCCNC(=O)CC[C@H](NC(=O)CC[C@H](NC(=O)CCCCCCCCCCCCCCCCCCC(=O)O)C(=O)O)C(=O)O)C(=O)N[C@@H](CC(N)=O)C(=O)N[C@@H]([C@@H](C)O)C(=O)N[C@@H](C)C(=O)N[C@@H]([C@@H](C)O)C(=O)N1)[C@@H](C)O)C(=O)N1CCC[C@H]1C(=O)N[C@@H](CO)C(=O)N[C@@H](CO)C(=O)N[C@H](C(=O)N[C@@H](CC(N)=O)C(=O)N[C@H](C(=O)NCC(=O)N1CCC[C@H]1C(=O)N[C@@H](Cc1c[nH]cn1)C(=O)N[C@H](C(=O)N[C@@H](Cc1ccc(O)cc1)C(N)=O)[C@@H](C)O)C(C)C)[C@@H](C)O [Example 124] (H-K([γGlu-γGlu-C20 diacid])CNTATCATQRLAEFLRHSSPNFGAIPSSTNVGPHTY-NH2; disulfide 2-7 (inferred))
≥ 200	193 (≈ 880 µg/mL)	≥ 200	138 (≈ 631 µg/mL)	≥ 200	≥ 200	≥ 200	64.4	64.4	64.4	64.4	64.4	64.4	64.4	0.234	121.9	121.9	121.9	28.5	≥ 200	CC[C@H](C)[C@H](NC(=O)[C@H](C)NC(=O)CNC(=O)[C@H](Cc1ccccc1)NC(=O)[C@H](CC(N)=O)NC(=O)[C@@H]1CCCN1C(=O)[C@H](CO)NC(=O)[C@H](CO)NC(=O)[C@H](Cc1c[nH]cn1)NC(=O)[C@H](CCCNC(=N)N)NC(=O)[C@H](CC(C)C)NC(=O)[C@H](Cc1ccccc1)NC(=O)[C@H](Cc1c[nH]cn1)NC(=O)[C@H](C)NC(=O)[C@H](CC(C)C)NC(=O)[C@H](CCCNC(=N)N)NC(=O)[C@H](CCC(N)=O)NC(=O)[C@@H](NC(=O)[C@H](C)NC(=O)[C@@H]1CSSC[C@H](NC(=O)[C@@H](N)CCCCNC(=O)COCCOCCNC(=O)CC[C@H](NC(=O)CCCCCCCCCCCCCCCCCCC(=O)O)C(=O)O)C(=O)N[C@@H](CC(N)=O)C(=O)N[C@@H]([C@@H](C)O)C(=O)N[C@@H](C)C(=O)N[C@@H]([C@@H](C)O)C(=O)N1)[C@@H](C)O)C(=O)N1CCC[C@H]1C(=O)N[C@@H](CO)C(=O)N[C@@H](CO)C(=O)N[C@H](C(=O)N[C@@H](CC(N)=O)C(=O)N[C@H](C(=O)NCC(=O)N1CCC[C@H]1C(=O)N[C@@H](CC(N)=O)C(=O)N[C@H](C(=O)N[C@@H](Cc1ccc(O)cc1)C(N)=O)[C@@H](C)O)C(C)C)[C@@H](C)O [Example 68] (H-K([AEEA-γGlu-C20 diacid])CNTATCATQRLAHFLRHSSPNFGAIPSSTNVGPNTY-NH2; disulfide 2-7)

From patent US9023789B2, “Amylin analogs and pharmaceutical compositions thereof” (Novo Nordisk A/S, priority 2012, dated 2015)
